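Protocol summary: plate cells (96-well), add compound at 5 concentrations, incubate 48 h, interpolate endpoints linearly. GI50 marks 50% less growth. The concentration for full growth arrest is given as TGI.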
Legend:
Assay in all cases: inhibition of tumour cell growth, NCI panel, 48 h
SR leukemia = test system: SR leukemia
A498 renal = test system: A498 renal
MOLT-4 leukemia = test system: MOLT-4 leukemia
CAKI-1 renal = test system: CAKI-1 renal
OVCAR-3 ovarian = test system: OVCAR-3 ovarian
OVCAR-4 ovarian = test system: OVCAR-4 ovarian
IGROV1 ovarian = test system: IGROV1 ovarian
NCI-H226 lung = test system: NCI-H226 lung
ACHN renal = test system: ACHN renal
OVCAR-5 ovarian = test system: OVCAR-5 ovarian

O=C1c2cccnc2-c2nc(-c3ccccc3[N+](=O)[O-])cc3c2c1nc1ccccc13
GI50 (SR leukemia): 96.1 µM
TGI (SR leukemia): > 100 µM
GI50 (A498 renal): > 77.3 µM
TGI (A498 renal): > 100 µM
TGI (MOLT-4 leukemia): > 100 µM
GI50 (CAKI-1 renal): 18 µM
TGI (CAKI-1 renal): 43.3 µM
GI50 (OVCAR-3 ovarian): 0.432 µM
TGI (OVCAR-3 ovarian): > 32.4 µM
GI50 (OVCAR-4 ovarian): 6.63 µM
TGI (OVCAR-4 ovarian): > 70.4 µM
GI50 (IGROV1 ovarian): 12.3 µM
TGI (IGROV1 ovarian): 83.3 µM
GI50 (NCI-H226 lung): > 100 µM
TGI (NCI-H226 lung): > 100 µM
GI50 (ACHN renal): 9.03 µM
TGI (ACHN renal): > 92.2 µM
GI50 (OVCAR-5 ovarian): 6.99 µM
TGI (OVCAR-5 ovarian): 33.4 µM

Cc1cc(=O)[nH]c2cc3oc4ccccc4c3cc12
TGI (SR leukemia): > 44.3 µM
TGI (A498 renal): > 100 µM
TGI (MOLT-4 leukemia): > 48.5 µM
TGI (CAKI-1 renal): > 100 µM
TGI (OVCAR-3 ovarian): > 89.4 µM
TGI (OVCAR-4 ovarian): > 100 µM
TGI (IGROV1 ovarian): > 100 µM
TGI (NCI-H226 lung): > 100 µM
TGI (ACHN renal): > 100 µM
TGI (OVCAR-5 ovarian): > 100 µM

O=C(/C=C/c1ccccc1Cl)c1ccc(Cl)c(Cl)c1
TGI (SR leukemia): 54.8 µM
TGI (A498 renal): 33.9 µM
TGI (MOLT-4 leukemia): 61.4 µM
TGI (CAKI-1 renal): 30.9 µM
TGI (OVCAR-3 ovarian): 28.7 µM
TGI (OVCAR-4 ovarian): 25.5 µM
TGI (IGROV1 ovarian): 25 µM
TGI (NCI-H226 lung): > 100 µM
TGI (ACHN renal): 28.6 µM
TGI (OVCAR-5 ovarian): 32.8 µM

O=C(Nc1ccc(F)cc1F)c1cc(I)ccc1O
GI50 (SR leukemia): 3.05 µM
TGI (SR leukemia): > 100 µM
GI50 (A498 renal): 1.45 µM
TGI (A498 renal): 3.31 µM
GI50 (MOLT-4 leukemia): 3.15 µM
TGI (MOLT-4 leukemia): 16.3 µM
GI50 (CAKI-1 renal): 1.92 µM
TGI (CAKI-1 renal): 6.49 µM
GI50 (OVCAR-3 ovarian): 3.13 µM
TGI (OVCAR-3 ovarian): 23.2 µM
GI50 (OVCAR-4 ovarian): 2.49 µM
GI50 (IGROV1 ovarian): 2.4 µM
TGI (IGROV1 ovarian): > 100 µM
GI50 (NCI-H226 lung): 2.46 µM
TGI (NCI-H226 lung): 15.8 µM
GI50 (ACHN renal): 2.5 µM
TGI (ACHN renal): 7.62 µM
GI50 (OVCAR-5 ovarian): 3.72 µM
TGI (OVCAR-5 ovarian): > 100 µM

C=C(CNCCO)[C@@H]1CC[C@]2(CO)CC[C@]3(C)[C@H](CC[C@@H]4[C@@]5(C)CCC(N)C(C)(C)[C@@H]5CC[C@]43C)[C@@H]12 (stereo partly drawn)
GI50 (SR leukemia): 1.9 µM
TGI (SR leukemia): 5.22 µM
GI50 (A498 renal): 9.55 µM
TGI (A498 renal): 22.6 µM
GI50 (MOLT-4 leukemia): 1.99 µM
TGI (MOLT-4 leukemia): 5.84 µM
GI50 (CAKI-1 renal): 4.86 µM
TGI (CAKI-1 renal): 18.1 µM
GI50 (OVCAR-3 ovarian): 7.71 µM
TGI (OVCAR-3 ovarian): 20.7 µM
GI50 (OVCAR-4 ovarian): 3.42 µM
TGI (OVCAR-4 ovarian): 13.6 µM
GI50 (IGROV1 ovarian): 6.05 µM
TGI (IGROV1 ovarian): 20.8 µM
GI50 (NCI-H226 lung): 11 µM
TGI (NCI-H226 lung): 27.9 µM
GI50 (ACHN renal): 12.2 µM
TGI (ACHN renal): 25 µM
GI50 (OVCAR-5 ovarian): 5.08 µM
TGI (OVCAR-5 ovarian): 18.1 µM

COc1ccc(NC(=O)c2cc(OC)cc(OC)c2)cc1
TGI (SR leukemia): > 100 µM
TGI (A498 renal): > 100 µM
TGI (MOLT-4 leukemia): > 100 µM
TGI (CAKI-1 renal): > 100 µM
TGI (OVCAR-3 ovarian): > 48.6 µM
TGI (OVCAR-4 ovarian): > 100 µM
TGI (IGROV1 ovarian): > 100 µM
TGI (NCI-H226 lung): > 100 µM
TGI (ACHN renal): > 100 µM
TGI (OVCAR-5 ovarian): > 100 µM

COc1cc(/C=C/c2cc(/C=C/c3ccc(O)c(OC)c3)n(C(=O)Nc3ccc(F)cc3)n2)ccc1O
GI50 (SR leukemia): 0.278 µM
GI50 (A498 renal): 2.42 µM
TGI (A498 renal): 6.46 µM
GI50 (MOLT-4 leukemia): 0.471 µM
TGI (MOLT-4 leukemia): > 22.8 µM
GI50 (CAKI-1 renal): 0.77 µM
TGI (CAKI-1 renal): 49.5 µM
GI50 (OVCAR-3 ovarian): 0.474 µM
TGI (OVCAR-3 ovarian): 3.13 µM
GI50 (OVCAR-4 ovarian): 1.36 µM
TGI (OVCAR-4 ovarian): 7.57 µM
GI50 (IGROV1 ovarian): 2.38 µM
TGI (IGROV1 ovarian): 34.3 µM
GI50 (NCI-H226 lung): 2.62 µM
TGI (NCI-H226 lung): 9.79 µM
GI50 (ACHN renal): 0.704 µM
TGI (ACHN renal): 61.2 µM
GI50 (OVCAR-5 ovarian): 3.99 µM
TGI (OVCAR-5 ovarian): 45 µM

NC1CCC(Nc2nc(NCc3ccc(-c4ccco4)nc3)c3ncn(C4CCCC4)c3n2)CC1 (stereo not drawn)
GI50 (SR leukemia): 0.0349 µM
TGI (SR leukemia): 0.19 µM
GI50 (A498 renal): 0.0311 µM
TGI (A498 renal): 0.0941 µM
GI50 (MOLT-4 leukemia): 0.0222 µM
GI50 (CAKI-1 renal): 2.86 µM
TGI (CAKI-1 renal): 12.6 µM
GI50 (OVCAR-3 ovarian): 0.0273 µM
TGI (OVCAR-3 ovarian): 0.0778 µM
GI50 (OVCAR-4 ovarian): 0.0307 µM
GI50 (IGROV1 ovarian): 0.0351 µM
TGI (IGROV1 ovarian): 10.7 µM
GI50 (NCI-H226 lung): 0.126 µM
GI50 (ACHN renal): 0.242 µM
GI50 (OVCAR-5 ovarian): 0.0324 µM
TGI (OVCAR-5 ovarian): 14.1 µM
